Laboratory results taken from the METLIN SMRT retention time set (Domingo-Almenara et al. 2019).

Assay: gradient 5% acetonitrile 3 min, to 50% in 2 min, to 85% in 15 min, held 3 min, 100 µL/min
Details: column: Zorbax Extend-C18 2.1 x 50 mm; eluents: water / acetonitrile, 0.1% formic acid
Procedure, shortened: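 Mixtures of ~100 pure standards were chromatographed on a Zorbax Extend-C18 column (2.1 × 50 mm, 1.8 μm) at 100 μL/min using water and acetonitrile, each with 0.1% formic acid. Detection used a quadrupole time-of-flight mass spectrometer in positive and negative ionization mode, and data collection spanned 3 months. Retention time was obtained from adduct peaks picked computationally and each checked manually.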

SMILES | RP-LC retention time [s]
CCCn1cc(CCNS(=O)(=O)c2ccc(Cl)cc2)c2cccnc21 | 891
CCNc1ncnc2sc3c(c12)CCN(C(=O)COC)C3 | 601
COc1ccc(C(=O)N2CCC[C@H]2c2nc(C(C)C)n[nH]2)c(OC)n1 | 590
COc1ccc(C(=O)NCCc2sc(-c3cccc(F)c3)nc2C)c(OC)c1 | 921
Cc1nnc2c(=O)n(CC(=O)NC(C)c3ccc(F)cc3)c3cccnc3n12 (configuration not stated) | 677
CCc1cc(N2CCN(C(=O)c3ccc(C#N)cc3)CC2)nc2nncn12 | 581
CCOC(=O)CNC(=O)N1CCCN(C2=NS(=O)(=O)C(c3ccc(C)cc3)=C2C)CC1 | 743
Cc1cccc(N2C(=O)CN(Cc3ccco3)[C@H]3CS(=O)(=O)C[C@H]32)c1 | 744
COc1ccccc1Cn1c(COc2ccccc2OC)nc2ccccc21 | 726
Cc1cccc2nnc(N3CCCN(C(=O)c4ccccc4Cl)CC3)n12 | 600
CC(C(=O)NCCN1CCCCCC1)n1c(=O)c(C(F)(F)F)nc2ccccc21 (configuration not stated) | 713
Cc1ccc([N+](=O)[O-])cc1NC(=O)Nc1cccc(F)c1 | 1010
COc1ccc2[nH]cc(CCNC(=O)Cn3nc4c(cc3=O)CCCC4)c2c1 | 714
CC1CCN(C(=O)c2cn(-c3cc(-c4nc(C5CC5)no4)ccn3)cn2)CC1 | 907
Cc1ccc(N2CC(c3noc(C4CCC4)n3)CC2=O)cc1 (configuration not stated) | 914
COc1cc(NC(=O)N2CCCC2c2nncn2C2CCCC2)cc(OC)c1 (configuration not stated) | 677
Cc1ccc(CNC(=O)Cn2cccc2-c2nc(-c3ccccc3)cs2)o1 | 1050
Cc1nn(-c2cc(N3CCCCC3)ncn2)c(C)c1CCC(=O)Nc1ccc2c(c1)OCO2 | 921
CN(C)C(=O)c1ccc2c(c1)N(CC(=O)NCCN1CCCCCC1)C(=O)C1CCCCN21 (configuration not stated) | 615

SMILES | RP-LC retention time [s]
CCCn1cc(CCNC(=O)Nc2c(C)cccc2C)c2cccnc21 | 736
Cc1ccc(-c2noc(CN3C(=O)COc4ccc(Cl)cc43)n2)cc1 | 1150
CCCCNC(=O)Cc1c(C)n(C)c2nc(-c3ccccc3)nn2c1=O | 665
Cc1cc(C(=O)NCCc2c[nH]c3ccccc23)c2c(=O)n(C)c(=O)n(C)c2n1 | 742
COC(=O)c1c(C)[nH]c(C(=O)N2CCC(CC(=O)NCCc3c(C)noc3C)CC2)c1C | 654
CCOCCCNC(=O)COc1nc(C)nc2onc(-c3ccccc3)c12 | 846
Cc1ccn2c(NC(=O)Cc3ccccc3)c(-c3ccc(F)cc3)nc2c1 | 669
CCc1ccc(C(=O)N2CCN(c3nc(CN4CCCCCC4)cs3)CC2)cc1 | 708
COc1cccc(-c2noc(C3CCCN3C(=O)NC(C)C)n2)c1 (configuration not stated) | 802
Cn1nccc1-c1cccc(-c2noc(-c3ccccc3F)n2)c1 | 1070
O=C(NCCC1CCN(S(=O)(=O)c2ccc(F)cc2)CC1)Nc1ccccc1 | 881
Cc1ccc(NC(=O)c2c(O)c3cccnc3n(-c3ccc(F)cc3)c2=O)c(F)c1 | 1330
CCOc1ccc2ncc(C(=O)c3ccc(OC)cc3)c(N3CCN(C)CC3)c2c1 | 599
COc1ccc(-c2nc(Cc3noc(-c4ccccc4OC)n3)c(C)o2)cc1 | 1070
CCOC(=O)c1c(NC(=O)CSc2nc(=O)n3cccc(C)c3n2)sc2c1CCC2 | 950
O=C(c1ccsc1)N1CCC(Nc2ncnc3c2CCC3)CC1 | 581
O=C(Nc1ccc(N2CCOCC2)cc1)c1ccc2nc(-c3ccccc3)cn2c1 | 646
CCCNC(=O)N1CC(c2nc(-c3ccc(F)cc3)no2)C2(CCOCC2)C1 (configuration not stated) | 793
